Source: ChEMBL document CHEMBL3885881, “DrugMatrix”
Where “and” joins values, the source holds several entries; their conditions need not be identical. Equal entries are not always repeated.

Species on record: Rattus norvegicus
Assay: DrugMatrix - Regimen: Daily Repeat
Assay type: toxicity, organism-based, Sprague-Dawley
Design: regimen Daily Repeat, gender Male, age 6-8 weeks
Conditions: in vivo, po, 0 mg/kg, route oral GAVAGE, dose level Control, vehicle .5 % CMC; for BASOPHIL / EOSINOPHIL / ERYTHROCYTE COUNT / HEMATOCRIT / HEMOGLOBIN / LEUKOCYTE COUNT / LYMPHOCYTE / MEAN CORPUSCULAR HEMOGLOBIN / MEAN CORPUSCULAR HEMOGLOBIN CONCENTRATION / MEAN CORPUSCULAR VOLUME / MONOCYTE / NEUTROPHIL / PLATELET COUNT / ABSOLUTE BASOPHIL / ABSOLUTE EOSINOPHIL / ABSOLUTE LYMPHOCYTE / ABSOLUTE MONOCYTE / ABSOLUTE SEGMENTED NEUTROPHIL: tissue Blood; for ALANINE AMINOTRANSFERASE / ALBUMIN / ALKALINE PHOSPHATASE / ASPARTATE AMINOTRANSFERASE / BLOOD UREA NITROGEN / CHLORIDE / CHOLESTEROL / CREATINE PHOSPHOKINASE / CREATININE / GLUCOSE / PHOSPHORUS / POTASSIUM / SODIUM / TOTAL BILIRUBIN / TOTAL PROTEIN / LACTATE DEHYDROGENASE / LIPASE / URIC ACID: tissue Plasma

## Cc1ccc2cc3c(ccc4ccccc43)c3c2c1CC3 [3-METHYLCHOLANTHRENE]
72 h, time 3 day
  BASOPHIL: 0.52%
  EOSINOPHIL: 0.48%
  ERYTHROCYTE COUNT: 6.68 x10E6/uL
  HEMATOCRIT: 43.07%
  HEMOGLOBIN: 13.48 G/DL
  LEUKOCYTE COUNT: 11.41 x10E3/uL
  LYMPHOCYTE: 80.78%
  MEAN CORPUSCULAR HEMOGLOBIN: 20.2 pg
  MEAN CORPUSCULAR HEMOGLOBIN CONCENTRATION: 31.32 G/DL
  MEAN CORPUSCULAR VOLUME: 64.45 fL
  MONOCYTE: 2.23%
  NEUTROPHIL: 14.73%
  PLATELET COUNT: 1225.83 x10E3/uL
  ALANINE AMINOTRANSFERASE: 44.5 u/L
  ALBUMIN: 3.62 G/DL
  ALKALINE PHOSPHATASE: 404.5 u/L
  ASPARTATE AMINOTRANSFERASE: 71.67 u/L
  BLOOD UREA NITROGEN: 15 mg/dL
  CHLORIDE: 103 MEQ/L
  CHOLESTEROL: 96.83 mg/dL
  CREATINE PHOSPHOKINASE: 236 u/L
  CREATININE: 0.43 mg/dL
  GLUCOSE: 186.83 mg/dL
  PHOSPHORUS: 12.67 mg/dL
  POTASSIUM: 7.1 MEQ/L
  SODIUM: 147.33 MEQ/L
  TOTAL BILIRUBIN: 0.52 mg/dL
  TOTAL PROTEIN: 6.18 G/DL
120 h, time 5 day
  ABSOLUTE BASOPHIL: 92 cells/µL
  ABSOLUTE EOSINOPHIL: 52 cells/µL
  ABSOLUTE LYMPHOCYTE: 6560 cells/µL
  ABSOLUTE MONOCYTE: 160 cells/µL
  ABSOLUTE SEGMENTED NEUTROPHIL: 1130 cells/µL
  BASOPHIL: 1.14% and 0.92%
  EOSINOPHIL: 0.68% and 0.43%
  ERYTHROCYTE COUNT: 7.51 x10E6/uL and 7.03 x10E6/uL
  HEMATOCRIT: 46.04% and 46.55%
  HEMOGLOBIN: 15.62 G/DL and 14.32 G/DL
  LEUKOCYTE COUNT: 8.03 x10E3/uL and 12.22 x10E3/uL
  LYMPHOCYTE: 81.54% and 82.65%
  MEAN CORPUSCULAR HEMOGLOBIN: 20.84 pg and 20.35 pg
  MEAN CORPUSCULAR HEMOGLOBIN CONCENTRATION: 33.94 G/DL and 30.77 G/DL
  MEAN CORPUSCULAR VOLUME: 61.42 fL and 66.28 fL
  MONOCYTE: 2% and 2.28%
  NEUTROPHIL: 14.24% and 12.73%
  PLATELET COUNT: 1427.2 x10E3/uL and 1268.67 x10E3/uL
  ALANINE AMINOTRANSFERASE: 35.6 u/L and 44.5 u/L
  ALBUMIN: 3.64 G/DL and 3.73 G/DL
  ALKALINE PHOSPHATASE: 233 u/L and 340.83 u/L
  ASPARTATE AMINOTRANSFERASE: 81 u/L and 66.5 u/L
  BLOOD UREA NITROGEN: 12 mg/dL and 13.33 mg/dL
  CHLORIDE: 109.4 MEQ/L and 102.17 MEQ/L
  CHOLESTEROL: 47.6 mg/dL and 82.17 mg/dL
  CREATINE PHOSPHOKINASE: 183.2 u/L and 146.67 u/L
  CREATININE: 0.4 mg/dL and 0.35 mg/dL
  GLUCOSE: 134.6 mg/dL and 186.17 mg/dL
  LACTATE DEHYDROGENASE: 89.4 u/L
  LIPASE: 17.2 u/L
  PHOSPHORUS: 13.02 mg/dL and 11.83 mg/dL
  POTASSIUM: 7 MEQ/L and 6.47 MEQ/L
  SODIUM: 149.6 MEQ/L and 148.83 MEQ/L
  TOTAL PROTEIN: 6.06 G/DL and 6.27 G/DL
  URIC ACID: 1.04 mg/dL
2184 h, time 91 day
  ABSOLUTE BASOPHIL: 130 cells/µL
  ABSOLUTE EOSINOPHIL: 70 cells/µL
  ABSOLUTE LYMPHOCYTE: 8670 cells/µL
  ABSOLUTE MONOCYTE: 160 cells/µL
  ABSOLUTE SEGMENTED NEUTROPHIL: 1530 cells/µL
  BASOPHIL: 1.13%
  EOSINOPHIL: 0.66%
  ERYTHROCYTE COUNT: 9.13 x10E6/uL
  HEMATOCRIT: 48.47%
  HEMOGLOBIN: 16.56 G/DL
  LEUKOCYTE COUNT: 10.5 x10E3/uL
  LYMPHOCYTE: 81.63%
  MEAN CORPUSCULAR HEMOGLOBIN: 18.16 pg
  MEAN CORPUSCULAR HEMOGLOBIN CONCENTRATION: 34.14 G/DL
  MEAN CORPUSCULAR VOLUME: 53.14 fL
  MONOCYTE: 1.53%
  NEUTROPHIL: 14.71%
  PLATELET COUNT: 1280.22 x10E3/uL
  ALANINE AMINOTRANSFERASE: 28.89 u/L
  ALBUMIN: 3.69 G/DL
  ALKALINE PHOSPHATASE: 101.11 u/L
  ASPARTATE AMINOTRANSFERASE: 70.67 u/L
  BLOOD UREA NITROGEN: 16.78 mg/dL
  CHLORIDE: 104.56 MEQ/L
  CHOLESTEROL: 58.78 mg/dL
  CREATINE PHOSPHOKINASE: 91.22 u/L
  CREATININE: 0.61 mg/dL
  GLUCOSE: 142.33 mg/dL
  LACTATE DEHYDROGENASE: 81.67 u/L
  LIPASE: 13 u/L
  PHOSPHORUS: 7.54 mg/dL
  POTASSIUM: 6.27 MEQ/L
  SODIUM: 149.89 MEQ/L
  TOTAL BILIRUBIN: 0.19 mg/dL
  TOTAL PROTEIN: 7.12 G/DL
  URIC ACID: 0.97 mg/dL
[…], time 28 day
  ABSOLUTE BASOPHIL: 150 cells/µL
  ABSOLUTE EOSINOPHIL: 54 cells/µL
  ABSOLUTE LYMPHOCYTE: 8890 cells/µL
  ABSOLUTE MONOCYTE: 190 cells/µL
  ABSOLUTE SEGMENTED NEUTROPHIL: 2250 cells/µL
  BASOPHIL: 1.26%
  EOSINOPHIL: 0.46%
  ERYTHROCYTE COUNT: 8.34 x10E6/uL
  HEMATOCRIT: 48.66%
  HEMOGLOBIN: 16.04 G/DL
  LEUKOCYTE COUNT: 11.58 x10E3/uL
  LYMPHOCYTE: 76.74%
  MEAN CORPUSCULAR HEMOGLOBIN: 19.2 pg
  MEAN CORPUSCULAR HEMOGLOBIN CONCENTRATION: 32.92 G/DL
  MEAN CORPUSCULAR VOLUME: 58.32 fL
  MONOCYTE: 1.76%
  NEUTROPHIL: 19.44%
  PLATELET COUNT: 1282.6 x10E3/uL
  ALANINE AMINOTRANSFERASE: 27 u/L
  ALBUMIN: 3.68 G/DL
  ALKALINE PHOSPHATASE: 146.2 u/L
  ASPARTATE AMINOTRANSFERASE: 66.6 u/L
  BLOOD UREA NITROGEN: 12.4 mg/dL
  CHLORIDE: 104.6 MEQ/L
